According to patent US20240425524A1, “SPIROTRICYCLE RIPK1 INHIBITORS AND METHODS OF USES THEREOF” (Merck Sharp & Dohme LLC, priority 2021, published 2024):

Target: RIPK1 (Homo sapiens (Human), UniProt Q13546)
Assay: RIPK1-ADP-Glo Enzymatic Assay
Assay type: biochemical
Details: recombinant GST-RIPK1 kinase domain (residues 1-327), 25 nM, ten-point titration, 30 minutes pre-incubation
Protocol: The enzymatic activity of RIPK1 was measured using an assay derived from ADP-Glo kit (™Promega), which provides a luminescent-based ADP detection system. Specifically, the ADP generated by RIPK1 kinase was proportionally detected as luminescent signals in a homogenous fashion. In this context, the assessment of the inhibitory effect of small molecules (EC50) was measured by the effectiveness of the compounds to inhibit the ATP to ADP conversion by RIPK1.
In this assay, the potency (EC50) of each compound was determined from a ten-point (1:3 serial dilution: top compound concentration of 100000 nM) titration curve using the following outlined procedure. To each well of a white ProxiPlus 384 well-plate, 30 nL of compound (1% DMSO in final assay volume of 3 μL) was dispensed, followed by the addition of 2 μL of 1x assay buffer (25 mM Hepes 7.3, 20 mM MgCl2, 50 mM NaCl, 1 mM DTT, 0.005% Tween20, and 0.02% BSA) containing 37.5 nM of GST-RIPK1 (recombinant GST-RIPK1 kinase domain (residues 1-327) enzyme produced from baculovirus-transfected Sf21 cells: MW=62 kDa). Plates were placed in an ambient temperature humidified chamber for a 30 minutes pre-incubation with compound. Subsequently, each reaction was initiated by the addition of 1 μL 1× assay buffer containing […] dephosphorylated-MBP substrate. The final reaction in each well of 3 μL consists of 25 nM of GST-RIPK1, 300 µM ATP, and 3 μM dephosphorylated-MBP. Kinase reactions were allowed to proceed for 150 minutes prior to adding ADP-Glo reagents per Promega's outlined kit protocol. Dose-response curves were generated by plotting percent effect (% product conversion: Y-axis) vs. Logio compound concentrations (X-axis). EC50 values were calculated using a non-linear regression, four-parameters sigmoidal dose-response model and are provided for example compounds of the invention (labeled “RIPK1 EC50 (nM)” throughout the above examples).

RIPK1, sequence (Q13546 1-327): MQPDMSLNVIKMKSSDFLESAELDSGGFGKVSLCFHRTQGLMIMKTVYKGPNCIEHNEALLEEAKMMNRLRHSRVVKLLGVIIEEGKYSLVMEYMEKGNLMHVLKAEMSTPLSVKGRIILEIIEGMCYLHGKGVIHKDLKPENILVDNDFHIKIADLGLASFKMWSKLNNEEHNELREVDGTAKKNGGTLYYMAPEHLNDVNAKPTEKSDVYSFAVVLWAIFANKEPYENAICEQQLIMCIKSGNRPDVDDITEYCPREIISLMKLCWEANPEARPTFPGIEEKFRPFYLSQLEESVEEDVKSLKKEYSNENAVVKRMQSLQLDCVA

EC50 | Compound
34 nM | N#Cc1cccc(N2CCC3(CC2)CN2CC[C@@H](c4cc(F)cc(F)c4)N2C3=O)n1 [Example 1.58, (S)-6-(7′-(3,5-difluorophenyl)-1′-oxodihydro-1′H,3′H,5′H-spiro[piperidine-4,2′-pyrazolo[1,2-a]pyrazol]-1-yl)picolinonitrile]
18 nM | CC(C)Oc1cc(N2CCC3(CC2)CN2CC[C@@H](c4cc(F)cc(F)c4)N2C3=O)ncc1C#N [Example 1.59, (S)-6-(7′-(3,5-difluorophenyl)-1′-oxodihydro-1′H,3′H,5′H-spiro[piperidine-4,2′-pyrazolo[1,2-a]pyrazol]-1-yl)-4-isopropoxynicotinonitrile]
17 nM | O=C1N2[C@H](c3cc(F)cc(F)c3)CCN2CC12CCN(c1cc(Br)cc(F)n1)CC2 [Example 1.60, (S)-1-(4-bromo-6-fluoropyridin-2-yl)-7′-(3,5-difluorophenyl)dihydro-1′H,3′H,5′H-spiro[piperidine-4,2′-pyrazolo[1,2-a]pyrazol]-1′-one]
904 nM | CN(C)c1cc(Cl)nc(N2CCC3(CC2)CN2CC[C@@H](c4cc(F)cc(F)c4)N2C3=O)n1 [Example 1.61, (S)-1-(4-chloro-6-(dimethylamino)pyrimidin-2-yl)-7′-(3,5-difluorophenyl)dihydro-1′H,3′H,5′H-spiro[piperidine-4,2′-pyrazolo[1,2-a]pyrazol]-1′-one]
20 nM | CC(=O)c1cnc(N2CCC3(CC2)CN2CC[C@@H](c4cc(F)cc(F)c4)N2C3=O)cc1Cl [Example 1.62, (S)-1-(5-acetyl-4-chloropyridin-2-yl)-7′-(3,5-difluorophenyl)dihydro-1′H,3′H,5′H-spiro[piperidine-4,2′-pyrazolo[1,2-a]pyrazol]-1′-one]
83 nM | O=C1N2[C@H](c3cc(F)cc(F)c3)CCN2CC12CCN(c1cccc(C(F)(F)F)n1)CC2 [Example 1.63, (S)-7′-(3,5-difluorophenyl)-1-(6-(trifluoromethyl)pyridin-2-yl)dihydro-1′H,3′H,5′H-spiro[piperidine-4,2′-pyrazolo[1,2-a]pyrazol]-1′-one]
25 nM | CC(=O)c1cccc(N2CCC3(CC2)CN2CC[C@@H](c4cc(F)cc(F)c4)N2C3=O)n1 [Example 1.64, (S)-1-(6-acetylpyridin-2-yl)-7′-(3,5-difluorophenyl)dihydro-1′H,3′H,5′H-spiro[piperidine-4,2′-pyrazolo[1,2-a]pyrazol]-1′-one]
144 nM | O=C1N2[C@H](c3cc(F)cc(F)c3)CCN2CC12CCN(c1nc(Cl)nc3c1CCC3)CC2 [Example 1.65, (S)-1-(2-chloro-6,7-dihydro-5H-cyclopenta[d]pyrimidin-4-yl)-7′-(3,5-difluorophenyl)dihydro-1′H,3′H,5′H-spiro[piperidine-4,2′-pyrazolo[1,2-a]pyrazol]-1′-one]
673 nM | CSc1ncc(C)c(N2CCC3(CC2)CN2CC[C@@H](c4cc(F)cc(F)c4)N2C3=O)n1 [Example 1.66, (S)-7′-(3,5-difluorophenyl)-1-(5-methyl-2-(methylthio)pyrimidin-4-yl)dihydro-1′H,3′H,5′H-spiro[piperidine-4,2′-pyrazolo[1,2-a]pyrazol]-1′-one]
38 nM | Cc1cc2c(N3CCC4(CC3)CN3CC[C@@H](c5cc(F)cc(F)c5)N3C4=O)ncnc2s1 [Example 1.67, (S)-7′-(3,5-difluorophenyl)-1-(6-methylthieno[2,3-d]pyrimidin-4-yl)dihydro-1′H,3′H,5′H-spiro[piperidine-4,2′-pyrazolo[1,2-a]pyrazol]-1′-one]
24 nM | O=C1N2[C@H](c3cc(F)cc(F)c3)CCN2CC12CCN(c1ncnc3sccc13)CC2 [Example 1.68, (S)-7′-(3,5-difluorophenyl)-1-(thieno[2,3-d]pyrimidin-4-yl)dihydro-1′H,3′H,5′H-spiro [piperidine-4,2′-pyrazolo[1,2-a]pyrazol]-1′-one]
296 nM | O=C1N2[C@H](c3cc(F)cc(F)c3)CCN2CC12CCN(c1cc(N3CCCC3)ncn1)CC2 [Example 1.69, (S)-7′-(3,5-difluorophenyl)-1-(6-(pyrrolidin-1-yl)pyrimidin-4-yl)dihydro-1′H,3′H,5′H-spiro[piperidine-4,2′-pyrazolo[1,2-a]pyrazol]-l′-one]
82 nM | O=C1N2[C@H](c3cc(F)cc(F)c3)CCN2CC12CCN(c1cncc(-n3cccn3)n1)CC2 [Example 1.70, (S)-1-(6-(1H-pyrazol-1-yl)pyrazin-2-yl)-7′-(3,5-difluorophenyl)dihydro-1′H,3′H,5′H-spiro[piperidine-4,2′-pyrazolo[1,2-a]pyrazol]-1′-one]
28 nM | O=C1N2[C@H](c3cc(F)cc(F)c3)CCN2CC12CCN(c1cccc(F)n1)CC2 [Example 1.71, (S)-7′-(3,5-difluorophenyl)-1-(6-fluoropyridin-2-yl)dihydro-1′H,3′H,5′H-spiro[piperidine-4,2′-pyrazolo[1,2-a]pyrazol]-1′-one]
208 nM | CCc1nccc(N2CCC3(CC2)CN2CC[C@@H](c4cc(F)cc(F)c4)N2C3=O)n1 [Example 1.72, (S)-7′-(3,5-difluorophenyl)-1-(2-ethylpyrimidin-4-yl)dihydro-1′H,3′H,5′H-spiro[piperidine-4,2′-pyrazolo[1,2-a]pyrazol]-1′-one]
4 nM | Cc1csc2ncnc(N3CCC4(CC3)CN3CC[C@@H](c5cc(F)cc(F)c5)N3C4=O)c12 [Example 1.73, (S)-7′-(3,5-difluorophenyl)-1-(5-methylthieno[2,3-d]pyrimidin-4-yl)dihydro-1′H,3′H,5′H-spiro[piperidine-4,2′-pyrazolo[1,2-a]pyrazol]-l′-one]
30 nM | N#Cc1cc(N2CCC3(CC2)CN2CC[C@@H](c4cc(F)cc(F)c4)N2C3=O)ncn1 [Example 1.74, (S)-6-(7′-(3,5-difluorophenyl)-1′-oxodihydro-1′H,3′H,5′H-spiro[piperidine-4,2′-pyrazolo[1,2-a]pyrazol]-1-yl)pyrimidine-4-carbonitrile]
49 nM | N#Cc1ccnc(N2CCC3(CC2)CN2CC[C@@H](c4cc(F)cc(F)c4)N2C3=O)n1 [Example 1.75, (S)-2-(7′-(3,5-difluorophenyl)-1′-oxodihydro-1′H,3′H,5′H-spiro[piperidine-4,2′-pyrazolo[1,2-a]pyrazol]-1-yl)pyrimidine-4-carbonitrile]
35 nM | N#Cc1cnc(N2CCC3(CC2)CN2CC[C@@H](c4cc(F)cc(F)c4)N2C3=O)nc1 [Example 1.76, (S)-2-(7′-(3,5-difluorophenyl)-1′-oxodihydro-1′H,3′H,5′H-spiro[piperidine-4,2′-pyrazolo[1,2-a]pyrazol]-1-yl)pyrimidine-5-carbonitrile]
200 nM | CC(F)(F)c1ccnc(N2CCC3(CC2)CN2CC[C@@H](c4cc(F)cc(F)c4)N2C3=O)n1 [Example 1.77, (S)-1-(4-(1,1-difluoroethyl)pyrimidin-2-yl)-7′-(3,5-difluorophenyl)dihydro-1′H,3′H,5′H-spiro [piperidine-4,2′-pyrazolo[1,2-a]pyrazol]-1′-one]
73 nM | N#Cc1nccc(N2CCC3(CC2)CN2CC[C@@H](c4cc(F)cc(F)c4)N2C3=O)n1 [Example 1.78, (S)-4-(7′-(3,5-difluorophenyl)-1′-oxodihydro-1′H,3′H,5′H-spiro[piperidine-4,2′-pyrazolo[1,2-a]pyrazol]-1-yl)pyrimidine-2-carbonitrile]
